Measured values from patent publication US8101655B2, “Fluorescent dyes and complexes” (priority 2004, dated 2012).
Read-outs that look alike come from different tables or passages of the source.

Experiments:
[1] = pKa of dyes and complexes (fluorescence titration)
Source text: By way of illustration, Table 1, below, lists a number of dyes, some prior to functionalisation, and complexes according to the present invention (in each X is O^−), together with their pKa values.

[2] = Fluorescence / colour response to pH; assay type: physicochemical; conditions: on tlc, compared with 2-[3,6-bisdimethylaminoxanth-9-ylium]-5-dimethylaminophenol
Source text: The dyes and complexes of the present invention show a negative fluorescence intensity response with increasing pH. […] Furthermore, the pals of these dyes and complexes may be varied by selection of the substituents R^5 and R^6, and by the inclusion of electron donating groups on the lowermost aryl ring, to give a range of dyes and complexes having pKa's particularly suited to cell analysis procedures.

COCCOCCN(CCOCCOC)c1ccc(-c2c3ccc(=[N+](CCOCCOC)CCOCCOC)cc-3oc3cc(N(CCOCCOC)CCOCCOC)ccc23)c([O-])c1 gave a pKa [1] of 2.3.

With “R1-Y=NHCSNC6H4CH2CH2; target=transferin; R2=Et; R3=Me; R4=Me; R5-Y2=Et; R6=Et: complex of a dye of formula (I) bonded to transferin” the pKa ([1]; Table 1, X is O-, dyes and complexes) was 2.0.

In the case of “2-[3-diethylamino-6-dimethylamino-xanth-9-ylium]-5-dimethylaminophenol”, the pH sensitivity [2] is reported as “same pH sensitivity”.
